# “Also recorded” adds a separate entry of the source.
# Legend:
# P-glycoprotein = P-glycoprotein (Homo sapiens, UniProt P08183); settings: cited from earlier work
# [1] = pediatric patient studies; cited from earlier work
# Drosophila Abl = target: T1, Drosophila Abl (Drosophila melanogaster, UniProt P00522); experiment: Abl activity in Schneider 2 cells expressing Drosophila Abl, western blot with anti-phospho-Y412-Abl antibody; type: cell-based; settings: nilotinib 5 μM, 6 hours, S2 cells expressing Drosophila Abl
# T1 construct: the full-length cDNA of Drosophila Abl was obtained by ligating two fragments; Myc; expressed in transfected cells; host or cells: Drosophila Schneider 2 (S2) cells
# T1 sequence (P00522 whole entry, the tested form may be a part): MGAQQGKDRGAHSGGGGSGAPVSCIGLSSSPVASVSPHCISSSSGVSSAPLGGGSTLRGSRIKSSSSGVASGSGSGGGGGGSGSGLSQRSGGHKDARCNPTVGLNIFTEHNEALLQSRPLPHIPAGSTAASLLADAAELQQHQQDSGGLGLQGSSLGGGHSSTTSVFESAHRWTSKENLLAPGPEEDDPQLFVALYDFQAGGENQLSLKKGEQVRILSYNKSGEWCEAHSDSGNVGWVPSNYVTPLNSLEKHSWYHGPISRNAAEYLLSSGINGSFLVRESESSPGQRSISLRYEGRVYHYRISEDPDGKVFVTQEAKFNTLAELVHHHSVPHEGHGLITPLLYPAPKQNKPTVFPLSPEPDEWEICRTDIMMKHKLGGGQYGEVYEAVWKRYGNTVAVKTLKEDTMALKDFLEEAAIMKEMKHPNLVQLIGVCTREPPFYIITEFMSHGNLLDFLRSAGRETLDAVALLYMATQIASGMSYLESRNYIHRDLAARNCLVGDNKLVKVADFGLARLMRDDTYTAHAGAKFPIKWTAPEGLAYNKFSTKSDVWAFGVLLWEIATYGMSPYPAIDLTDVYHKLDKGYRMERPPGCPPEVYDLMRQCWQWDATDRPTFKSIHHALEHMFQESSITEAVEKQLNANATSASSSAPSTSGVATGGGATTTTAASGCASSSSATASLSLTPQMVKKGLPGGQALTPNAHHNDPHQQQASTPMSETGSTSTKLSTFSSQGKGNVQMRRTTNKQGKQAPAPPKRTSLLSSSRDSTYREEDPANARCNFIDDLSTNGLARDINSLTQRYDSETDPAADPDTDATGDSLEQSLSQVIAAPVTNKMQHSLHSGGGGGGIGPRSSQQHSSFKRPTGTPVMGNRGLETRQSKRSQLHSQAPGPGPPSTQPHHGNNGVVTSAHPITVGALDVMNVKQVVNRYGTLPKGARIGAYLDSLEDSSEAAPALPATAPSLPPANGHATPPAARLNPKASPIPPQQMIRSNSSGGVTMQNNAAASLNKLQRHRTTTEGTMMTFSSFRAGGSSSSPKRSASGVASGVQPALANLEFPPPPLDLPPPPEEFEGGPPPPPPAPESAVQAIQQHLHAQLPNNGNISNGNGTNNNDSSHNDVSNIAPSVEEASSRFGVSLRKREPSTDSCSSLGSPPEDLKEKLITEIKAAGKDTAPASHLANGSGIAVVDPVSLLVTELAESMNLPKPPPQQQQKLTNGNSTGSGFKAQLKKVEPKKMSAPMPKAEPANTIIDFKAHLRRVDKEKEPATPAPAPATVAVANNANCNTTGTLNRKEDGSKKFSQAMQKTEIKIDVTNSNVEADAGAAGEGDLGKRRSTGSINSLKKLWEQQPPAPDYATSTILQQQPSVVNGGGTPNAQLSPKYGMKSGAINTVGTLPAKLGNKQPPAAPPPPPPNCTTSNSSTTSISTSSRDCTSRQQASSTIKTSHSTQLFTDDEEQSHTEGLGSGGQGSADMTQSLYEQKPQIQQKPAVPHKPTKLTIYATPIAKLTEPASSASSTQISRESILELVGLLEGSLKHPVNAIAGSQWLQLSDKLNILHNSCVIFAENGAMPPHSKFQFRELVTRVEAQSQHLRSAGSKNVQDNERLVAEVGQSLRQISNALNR
# Experimental: Abl activity was assessed by western blotting analysis with an anti-phospho-Y412-Abl antibody.
# Drosophila Schneider 2 cells were maintained in Drosophila Schneider's medium (Life Technologies) supplemented with 10% fetal bovine serum (Sigma-Aldrich, St. Louis, Mo.) in a humidified atmosphere at 26° C. Cells grown on tissue culture plates were transfected with Lipofectamine 2000 (Life Technologies) according to manufacturer's recommendation. Cells were harvested two days after transfection, lysed in SDS sample buffer, and subjected to western blot analysis. In some experiments, cells were transfected with indicated DNA constructs together with tubulin-Gal4 (Lee and Luo, 2001) by using Lipofectamine 2000 (Invitrogen) according to manufacturer's protocol.
# Western blot analysis was performed as follows.
# (§1) Sample preparation, imaging, and quantification were then completed as described above.
# During the development of embodiments of the technology provided herein, experiments were performed to assess the effects of Abl kinase inhibitors on Dscam-induced axonal overgrowth. […] Abl activity was assessed by western blotting analysis with an anti-phospho-Y412-Abl antibody.
# [2] = tested on: C4da neurons overexpressing Dscam; experiment: Axon terminal overgrowth induced by Dscam overexpression in single C4da neurons (MARCM), larvae fed drug; type: in vivo, Drosophila; settings: larvae reared in food containing 380 μM nilotinib (figure legend: 0.4 mM), 4 days
# Text: The genetic technique MARCM was used to express the Dscam transgene in single C4da neurons and to label the morphology of the axon terminals.
# The MARCM technique was used to generate and label C4da neurons homozygous for abl^1 or abl^4 mutations and C4da neurons overexpressing Dscam[TM2]:GFP.
# Antibodies used include chicken anti-GFP (Ayes) and rabbit anti-RFP (Rockland). Samples were dehydrated and mounted with DPX mounting media (Electron Microscopy Sciences). Confocal imaging was completed with a Leica SP5 confocal system equipped with a resonant scanner and 63× oil-immersion lens (NA=1.40).
# as §1
# In particular, the genetic mosaic analysis MARCM was used to express the Dscam transgene in single C4da neurons and to label the morphology of the axon terminals. […] Expression of Dscam transgene was achieved by the C4da-specific driver ppk-Gal4 and UAS-Dscam::GFP transgenes. […] Dscam expression levels (GFP intensity) were measured from the C4da neuron cell body.
# [3] = tested on: dFMRP mutant C4da neurons; experiment: Axon terminal overgrowth in dFMRP mutants (Fragile X Syndrome model), larvae fed drug; type: in vivo, Drosophila; settings: larvae raised with nilotinib 4 days; vehicle-fed mutants 130%
# Text: The MARCM technique was used to generate and visualize single axon terminals of mutant C4da neurons. […] FIG. 10c summarizes the data from FIG. 6, FIG. 10A and FIG. 10B relating to quantification of the axon terminal length of the indicated genotype and drug treatment. […] Scale bar is 10 μm. Two-way Student's t-test was used for statistical analysis. *: p<0.05; **: p<0.01; ***: p<0.001; ****; p<0.0001.
# The MARCM technique was used to generate and label C4da neurons homozygous for abl^1 or abl^4 mutations and C4da neurons overexpressing Dscam[TM2]:GFP. MARCM clones were induced as previously described in Ye et al. (2011) Journal of Neuroscience 31: 3309-3319. Confocal images were collected and analyzed as described in Kim et al. (2013) Neuron 78: 827-838. The MARCM technique was used to visualize single neurons homozygous for abl^1, abl^4, or dFMRP^Δ50 and overexpressing Dscam[3.36.25.2]:GFP as previously described (Kim, et al., 2013).
# as §1
# Fragile X Syndrome (FXS) is caused by an absence of Fragile X mental retardation protein (FMRP) (Kremer, et al. (1991) Science 252: 1711-14), and is modeled in Drosophila using loss-of-function mutants for the Drosophila homolog of […], dFMRP (Zhang, et al. (2001) Cell 107:591-603; Dockendorff, et al. (2002) Neuron 34: 973-84).
# Human pharmacokinetics = type: in vivo; settings: estimated
# [4] = human, oral capsule; cited from earlier work
# OCT1 = target: T2, OCT1 (Homo sapiens, UniProt O15245); settings: entry into cell cytoplasm; cited from earlier work
# T2 sequence (O15245 1-554): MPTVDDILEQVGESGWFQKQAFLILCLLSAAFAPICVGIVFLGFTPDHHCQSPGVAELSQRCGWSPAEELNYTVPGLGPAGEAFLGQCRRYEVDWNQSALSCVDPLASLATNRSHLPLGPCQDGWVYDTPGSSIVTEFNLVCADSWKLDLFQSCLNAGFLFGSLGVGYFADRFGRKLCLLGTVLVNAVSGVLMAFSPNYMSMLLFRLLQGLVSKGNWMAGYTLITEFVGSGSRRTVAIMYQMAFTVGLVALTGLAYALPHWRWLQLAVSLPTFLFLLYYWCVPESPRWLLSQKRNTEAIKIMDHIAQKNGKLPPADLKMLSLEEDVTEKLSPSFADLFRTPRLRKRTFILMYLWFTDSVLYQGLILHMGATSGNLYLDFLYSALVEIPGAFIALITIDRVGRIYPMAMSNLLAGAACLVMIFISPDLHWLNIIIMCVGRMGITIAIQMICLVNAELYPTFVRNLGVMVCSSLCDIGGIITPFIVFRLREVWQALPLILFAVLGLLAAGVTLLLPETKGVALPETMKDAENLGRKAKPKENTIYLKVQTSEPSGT
# Sequence of P-glycoprotein (P08183 whole entry): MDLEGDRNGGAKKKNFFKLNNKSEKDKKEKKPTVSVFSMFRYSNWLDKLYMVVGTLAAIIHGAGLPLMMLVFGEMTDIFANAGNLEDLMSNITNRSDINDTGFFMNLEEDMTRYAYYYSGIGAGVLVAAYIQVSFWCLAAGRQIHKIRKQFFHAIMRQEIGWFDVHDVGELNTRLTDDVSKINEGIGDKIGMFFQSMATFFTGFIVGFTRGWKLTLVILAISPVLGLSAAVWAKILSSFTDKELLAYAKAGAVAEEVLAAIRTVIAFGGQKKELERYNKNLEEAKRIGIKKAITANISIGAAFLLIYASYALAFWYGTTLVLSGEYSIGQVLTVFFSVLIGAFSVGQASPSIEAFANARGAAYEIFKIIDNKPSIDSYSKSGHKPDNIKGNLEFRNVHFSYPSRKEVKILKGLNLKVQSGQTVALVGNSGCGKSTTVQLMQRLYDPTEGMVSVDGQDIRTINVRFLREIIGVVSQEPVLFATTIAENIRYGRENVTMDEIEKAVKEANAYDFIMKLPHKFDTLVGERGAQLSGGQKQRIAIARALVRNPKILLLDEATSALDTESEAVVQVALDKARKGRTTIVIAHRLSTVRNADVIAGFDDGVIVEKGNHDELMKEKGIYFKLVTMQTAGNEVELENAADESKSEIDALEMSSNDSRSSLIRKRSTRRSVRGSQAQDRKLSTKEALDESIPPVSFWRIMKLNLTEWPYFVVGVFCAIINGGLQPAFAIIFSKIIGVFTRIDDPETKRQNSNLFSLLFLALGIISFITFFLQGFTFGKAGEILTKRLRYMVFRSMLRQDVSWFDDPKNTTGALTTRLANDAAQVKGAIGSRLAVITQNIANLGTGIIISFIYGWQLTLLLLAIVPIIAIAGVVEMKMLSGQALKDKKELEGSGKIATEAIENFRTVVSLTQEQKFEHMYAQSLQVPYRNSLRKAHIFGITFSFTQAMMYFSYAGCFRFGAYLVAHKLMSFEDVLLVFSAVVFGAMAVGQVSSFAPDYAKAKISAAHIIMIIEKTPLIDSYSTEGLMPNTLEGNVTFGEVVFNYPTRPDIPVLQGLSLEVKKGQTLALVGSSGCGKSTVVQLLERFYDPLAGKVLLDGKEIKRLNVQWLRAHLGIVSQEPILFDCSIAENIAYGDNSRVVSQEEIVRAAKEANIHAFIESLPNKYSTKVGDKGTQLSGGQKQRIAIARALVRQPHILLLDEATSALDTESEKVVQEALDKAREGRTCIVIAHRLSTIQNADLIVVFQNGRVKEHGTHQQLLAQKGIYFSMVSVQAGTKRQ
Compound,substrate for the efflux transporter P-glycoprotein pump (P-glycoprotein),tolerance in children [1],Abl activity (phospho-Y412-Abl) (Drosophila Abl),Dscam-induced axon terminal overgrowth [2],axon terminal length in dFMRP mutants [3],concentration in a human (Human pharmacokinetics),bioavailability [4],influx dependent on OCT1 (OCT1)
Cc1nc(Nc2ncc(C(=O)Nc3c(C)cccc3Cl)s2)cc(N2CCN(CCO)CC2)n1 [Dasatinib],not a substrate,good tolerance,–,–,–,–,–,–
Cc1ccc(NC(=O)c2ccc(CN3CCN(C)CC3)cc2)cc1Nc1nccc(-c2cccnc2)n1 [imatinib],substrate,–,–,–,–,–,–,–
"Cc1cn(-c2cc(NC(=O)c3ccc(C)c(Nc4nccc(-c5cccnc5)n4)c3)cc(C(F)(F)F)c2)cn1 [nilotinib, 4-methyl-N-[3-(4-methyl-1-H-imidazol-1-yl)-5-(trifluoromethyl)phenyl]-3-[(4-pyridin-3-ylpyrimidin-2-yl)amino]benzamide]",not a substrate,–,completely suppressed,nearly completely suppressed; also recorded: suppresses axon terminal overgrowth,103 % of control,approximately 1.3 μmol/liter,approximately 30%,is not
